The values below come from patent US11986471B2, “Compounds and methods of use” (Tango Therapeutics, Inc., priority 2018, dated 2024).

Where only a bound is given, the exact number is not on record here.

For assay [1], the target named is T1, PRMT5 (Homo sapiens, UniProt O14744).
T1 construct: purchased Viva (custom protein)
Kind of assay: PRMT5 IC50 assay in the presence of SAM as cofactor. It counts as biochemical. Summed up: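 Values reflect IC50 (μM) on human PRMT5 under three cofactor states. Selectivity is derived as the quotient of SAM-state Ki over MTA-state Ki, with each Ki obtained from its IC50.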

Assay [2] deals with T1, PRMT5. Briefly: PRMT5 IC50 assay with no cofactor. Format: biochemical. To be noted: read-out: No Co-factor IC50. An outline of the steps: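 Ki conversion: SAM arm, Ki=IC50/1.5; MTA arm, Ki=IC50/13.5. No-cofactor arm reported as IC50 only. Selectivity expressed as Ki(SAM)/Ki(MTA).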
Assay [3] deals with T1, PRMT5. Briefly: PRMT5 IC50 assay in the presence of MTA as cofactor. It counts as biochemical. To be noted: for IC50: PRMT5, MTA as cofactor; for SAM/MTA Ratio: ratio between Ki in the presence of SAM and Ki in the presence of MTA. An outline of the steps: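 Three cofactor conditions are run: SAM-bound, MTA-bound and cofactor-free enzyme. IC50 is read from each; for the SAM and MTA arms it is divided by 1.5 and 13.5 respectively to give Ki.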

The next assay deals with HAP1 MTAP-intact. Briefly: SDMA in-cell western assay, HAP1 MTAP-intact cell line. Format: cell-based. To be noted: Homo sapiens. Summed up:
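HAP1 isogenic pair: endogenous MTAP vs MTAP-null. Readout SDMA by in-cell western; IC50 per line. Ratio ≥3 fold = MTAP-selective.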

For the next assay, the system named is HAP1 MTAP-deleted. Briefly: SDMA in-cell western assay, HAP1 MTAP-deleted cell line. It counts as cell-based. To be noted: for IC50: Homo sapiens, HAP1 MTAP-deleted cell line; for MTAP Intact/Deleted Ratio: IC50 ratio HAP1 MTAP-intact / HAP1 MTAP-deleted. Summed up:
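IC50 from SDMA in-cell western; HAP1 line lacking MTAP (null), paired isogenically with MTAP-intact HAP1 expressing endogenous MTAP.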

T1 sequence (O14744 whole entry): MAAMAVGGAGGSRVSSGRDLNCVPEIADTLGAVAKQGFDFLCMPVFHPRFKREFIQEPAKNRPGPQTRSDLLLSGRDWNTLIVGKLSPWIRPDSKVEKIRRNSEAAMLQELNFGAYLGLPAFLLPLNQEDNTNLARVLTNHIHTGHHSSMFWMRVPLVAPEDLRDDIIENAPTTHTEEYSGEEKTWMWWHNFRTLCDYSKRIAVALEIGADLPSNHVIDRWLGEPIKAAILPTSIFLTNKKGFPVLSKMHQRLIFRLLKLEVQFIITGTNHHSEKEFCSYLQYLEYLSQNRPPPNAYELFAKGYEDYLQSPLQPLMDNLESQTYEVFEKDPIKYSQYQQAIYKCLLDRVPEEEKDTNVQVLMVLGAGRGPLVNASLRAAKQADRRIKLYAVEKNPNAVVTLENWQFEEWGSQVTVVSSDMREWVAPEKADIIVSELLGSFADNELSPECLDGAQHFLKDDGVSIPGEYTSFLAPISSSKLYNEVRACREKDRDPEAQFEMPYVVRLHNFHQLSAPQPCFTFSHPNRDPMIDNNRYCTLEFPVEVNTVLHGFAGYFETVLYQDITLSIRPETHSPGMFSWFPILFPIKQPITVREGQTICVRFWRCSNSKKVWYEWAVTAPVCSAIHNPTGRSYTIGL
T1 sequence (Q9BQA1 whole entry partner): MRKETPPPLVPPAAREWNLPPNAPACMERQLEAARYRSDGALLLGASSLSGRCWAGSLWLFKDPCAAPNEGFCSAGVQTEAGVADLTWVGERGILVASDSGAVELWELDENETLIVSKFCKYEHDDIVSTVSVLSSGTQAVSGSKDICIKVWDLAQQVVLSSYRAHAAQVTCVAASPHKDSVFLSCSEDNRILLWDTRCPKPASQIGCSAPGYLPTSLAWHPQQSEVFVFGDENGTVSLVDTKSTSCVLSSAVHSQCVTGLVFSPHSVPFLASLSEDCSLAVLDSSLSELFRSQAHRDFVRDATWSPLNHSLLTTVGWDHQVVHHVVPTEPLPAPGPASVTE

On to `Cc1ncoc1COc1ccc2c(c1)CCN(C[C@@H](O)CNC(=O)c1cc(NC3CCC3)nc(NC3CCC3)c1)C2` [Compound 636, (S)-2,6-bis(cyclobutylamino)-N-(2-hydroxy-3-(6-((4-methyloxazol-5-yl)methoxy)-3N-dihydroisoquinolin-2(1H)-yl)propyl)isonicotinamide], for which the IC50 – broadly, the concentration needed to halve the response being measured – is 50 to 500 nM at PRMT5 [1]; 500 to 5000 nM on PRMT5 [2]; 50 to 500 nM at PRMT5 [3]; 1 to 10 µM in the assay on HAP1 MTAP-intact; less than 1000 nM in the assay with HAP1 MTAP-deleted. For the same compound, the “SAM/MTA Ratio” value at PRMT5 [3] was “A (a Ki ratio greater than or equal to 10 fold between the Ki in the presence of SAM and the Ki in the presence of MTA)”. Moreover, the “MTAP Intact/Deleted Ratio” value in the assay with HAP1 MTAP-deleted was “B* (an IC50 ratio greater than or equal to 3 fold but lower than 10 fold between the IC50 in the HAP1 MTAP-intact cell line and the HAP1 MTAP-deleted cell line)”.
Take `CC(=O)N1CCC(Nc2cc(C(=O)NC[C@H](O)CN3CCc4cc(OCc5ocnc5C)ccc4C3)ccn2)C(C)C1` (stereo partly drawn) [Compound 637, 2-((1-acetyl-3-methylpiperidin-4-yl)amino)-N—((S)-2-hydroxy-3-(6-((4-methyloxazol-5-yl)methoxy)-3,4-dihydroisoquinolin-2(1H)-yl)propyl)isonicotinamide]: the IC50 was 50 to 500 nM at PRMT5 [1]; no less than 5000 nM at PRMT5 [2]; 50 to 500 nM at PRMT5 [3]; 1 to 10 µM with HAP1 MTAP-intact; 1000 to 10000 nM in the assay with HAP1 MTAP-deleted. Besides, the “SAM/MTA Ratio” value on PRMT5 [3] is “A (a Ki ratio greater than or equal to 10 fold between the Ki in the presence of SAM and the Ki in the presence of MTA)”. Further, the “MTAP Intact/Deleted Ratio” value in the assay on HAP1 MTAP-deleted is “B* (an IC50 ratio greater than or equal to 3 fold but lower than 10 fold between the IC50 in the HAP1 MTAP-intact cell line and the HAP1 MTAP-deleted cell line)”.
Turning to `CC(=O)N1CC[C@H](Nc2cc(C(=O)NC[C@H](O)CN3CCc4cc(OCc5ocnc5C)ccc4C3)ccn2)C[C@H]1C` [Compound 644, 2-(((2R,4S)-1-acetyl-2-methylpiperidin-4-yl)amino)-N—((S)-2-hydroxy-3-(6-((4-methyloxazol-5-yl)methoxy)-3,4-dihydroisoquinolin-2(1H)-yl)propyl)isonicotinamide], the IC50 at PRMT5 [1] is 50 to 500 nM; on PRMT5 [2], 500 to 5000 nM; on PRMT5 [3], less than 50 nM; with HAP1 MTAP-intact, 1 to 10 µM; with HAP1 MTAP-deleted, less than 1000 nM. In addition, the “SAM/MTA Ratio” value on PRMT5 [3] was “A (a Ki ratio greater than or equal to 10 fold between the Ki in the presence of SAM and the Ki in the presence of MTA)”. Moreover, the “MTAP Intact/Deleted Ratio” value in the assay with HAP1 MTAP-deleted is “A* (an IC50 ratio greater than or equal to 10 fold between the IC50 in the HAP1 MTAP-intact cell line and the HAP1 MTAP-deleted cell line)”.
Consider `CC(=O)N1[C@@H]2CC[C@H]1C[C@H](Nc1cc(C(=O)NC[C@H](O)CN3CCc4cc(OCc5ocnc5C)ccc4C3)ccn1)C2` [Compound 645, 2-(((1R,3r,5S)-8-acetyl-8-azabicyclo[3.2.1]octan-3-yl)amino)-N—((S)-2-hydroxy-3-(6-((4-methyloxazol-5-yl)methoxy)-3,4-dihydroisoquinolin-2(1H)-yl)propyl)isonicotinamide], for which the concentration for half-maximal inhibition (IC50) was 50 to 500 nM on PRMT5 [1]; 500 to 5000 nM on PRMT5 [2]; 50 to 500 nM at PRMT5 [3]; no less than 10 µM with HAP1 MTAP-intact; less than 1000 nM with HAP1 MTAP-deleted. The “SAM/MTA Ratio” value at PRMT5 [3] is “A (a Ki ratio greater than or equal to 10 fold between the Ki in the presence of SAM and the Ki in the presence of MTA)”. The “MTAP Intact/Deleted Ratio” value in the assay with HAP1 MTAP-deleted is “A* (an IC50 ratio greater than or equal to 10 fold between the IC50 in the HAP1 MTAP-intact cell line and the HAP1 MTAP-deleted cell line)”.
For the compound `CC(=O)N1CCC(Nc2cc(C(=O)NC[C@H](O)CN3CCc4cc(OCc5ocnc5C)ccc4C3)nc(N3CCCCC3)n2)CC1` [Compound 647], the 50% inhibitory concentration (IC50) on PRMT5 [1] was 50 to 500 nM; at PRMT5 [2], 50 to 500 nM; on PRMT5 [3], less than 50 nM; with HAP1 MTAP-intact, less than 1 µM; with HAP1 MTAP-deleted, less than 1000 nM. In addition, the “SAM/MTA Ratio” value on PRMT5 [3] is “A (a Ki ratio greater than or equal to 10 fold between the Ki in the presence of SAM and the Ki in the presence of MTA)”. Also, the “MTAP Intact/Deleted Ratio” value in the assay on HAP1 MTAP-deleted is “B* (an IC50 ratio greater than or equal to 3 fold but lower than 10 fold between the IC50 in the HAP1 MTAP-intact cell line and the HAP1 MTAP-deleted cell line)”.
